In US10596296B2, “Heparan sulphates” (Agency for Science, Technology and Research, priority 2014, dated 2020):

Tests used:
[1] = molecular target: T1, TGF-β1 (Homo sapiens, UniProt P01137); assay: SPR competitive binding: soluble GAG competes for TGF-β1 against heparin-coated chip; settings: for ability to competitively inhibit TGF-β1 binding to immobilized heparin: 200 nM TGF-β1 pre-incubated with 5 or 10 μg GAG
T1 construct: full length mature TGF-β1 is 112 amino acids in length
Procedure: Biotinylated heparin was prepared based on the protocol reported by Hernaiz et al. (33). Briefly, 20 mg of heparin was filter-sterilized (0.22 μm) in 1 ml of water and incubated with 8.6 μmol of N-hydroxysuccinimide-biotin (NHS-biotin) (Pierce) in 20 μl of dimethyl sulfoxide (DMSO) for 2 h at 4° C. The biotinylated heparin was then extensively dialyzed (7000 MWCO) to remove unreacted biotin. Immobilization of the biotinylated heparin onto a streptavidin (SA) sensor chip (GE Healthcare) was carried out using the immobilization wizard on the Biacore T100 (GE Healthcare) with a targeted immobilization level of approximately 40 response units (RUs). HBS-EP running buffer (10 mM HEPES, 150 mM NaCl, 3.0 mM EDTA, 0.05% (v/v) Tween 20, pH 7.4) was used for the immobilization.
TGF-β1-heparin interactions were effected by preparing a series of TGF-β1 protein samples (50 to 800 nM final concentration) diluted in HBS-EP-0.1 running buffer (0.1% instead of 0.05% (v/v) Tween 20). […] The sample solutions were then injected over the heparin-coated chip at a flow rate of 30 μl/min for 120 s, with HBS-EP-0.1 being subsequently passed over the chip for a further 1200 s to monitor TGF-β1 dissociation. After dissociation, the sensor surface on the chip was regenerated by 2 washes of 2 M NaCl injected at 30 μl/min for 60 s. The response was measured as a function of time (sensogram) at 25° C. The maximum binding response for each condition was normalized to the response obtained from TGF-β1 alone.

[2] = molecular target: T1, TGF-β1; assay: GAG-binding plate assay; settings: wells coated with 5 μg/ml GAG
Procedure: GAGs are immobilized in each well and then challenged with TGF-β1 according to the manufacturer's instructions. Briefly, triplicate wells are first pre-coated with 5 μg/ml of heparin, HS^PM, HS16^+ve or HS16^−ve in standard assay buffer (SAB: 100 mM NaCl, 50 mM sodium acetate, 0.2% v/v Tween 20, pH 7.2), and then incubated overnight at room temperature. The plates are next washed carefully three times with SAB, blocked with 250 μl of blocking solution (0.4% w/v fish skin gelatine, Sigma-Aldrich, in SAB) and incubated for 1 h at 37° C. TGF-β1 was then dissolved in blocking solution at a concentration of 100, 200, or 400 ng/ml. The plates are washed three times with SAB and each dilution of protein (200 μl) is dispensed into triplicate wells and incubated for 2 h at 37° C., rinsed with SAB and 200 μl of 750 ng/ml monoclonal mouse anti-TGF-β1 antibody (MAB2401, R&D Systems) added in blocking solution. Plates are then incubated for 1 h at 37° C., washed with SAB, and 200 μl of 1 μg/ml polyclonal goat anti-mouse biotinylated antibody (ab6788, Abcam) added in blocking solution. Again, plates are incubated for 1 h at 37° C., washed with SAB, and 200 μl of 220 ng/ml ExtrAvidin AP (Sigma-Aldrich) is added in blocking solution, incubated for 30 min at 37° C., and then rinsed with SAB. Finally, 200 μl of development reagent (SigmaFAST p-Nitrophenyl phosphate, Sigma-Aldrich) is added, incubated at 37° C. for 40 min and read at 405 nm within 1 h.
To determine the ability of TGF-β1 to bind to heparin, we utilized positively-charged GAG-binding plates (Iduron) as a capture substrate. GAGs were immobilized in each well and then challenged with TGF-β1 according to the manufacturer's instructions. Briefly, triplicate wells were first pre-coated with 5 μg/ml of full length heparin, size-fractionated heparin (dp14, 16, 18, 20, 22 and 24) or selectively […] heparin prepared in standard assay buffer (SAB: 100 mM NaCl, 50 mM sodium acetate, 0.2% v/v Tween 20, pH 7.2), and then incubated overnight at room temperature. The plates were next washed carefully three times with SAB, blocked with 250 μl of blocking solution (0.4% w/v fish skin gelatine, Sigma-Aldrich, in SAB) and incubated for 1 h at 37° C. TGF-β1 was then dissolved in blocking solution at a concentration of 100, 200, or 400 ng/ml. The plates were washed three times with SAB and each dilution of protein (200 μl) was dispensed into triplicate wells and incubated for 2 h at 37° C., rinsed with SAB and 200 μl of 750 ng/ml monoclonal mouse anti-TGF-β1 antibody (MAB2401, R&D Systems) added in blocking solution. […] Finally, 200 μl of development reagent (SigmaFAST p-Nitrophenyl phosphate, Sigma-Aldrich) was added, incubated at 37° C. for 40 min and read at 405 nm within 1 h.

[3] = test system: TGF-β1 signaling (pSMAD2, pSMAD3) in hMSCs; assay: Western blotting of pSMAD2/pSMAD3 in hMSCs treated with TGF-β1 and GAG; type: cell-based, human; settings: TGF-β1 1 ng/ml pre-incubated with 10 μg/ml GAG; 6 h
Procedure: Primary hMSCs (Lonza) were isolated from the bone marrow mononuclear cells of a young healthy adult human donor by plastic adherence and characterized as previously described (30,31). The adherent cells were maintained in a basal media consisting of DMEM-low glucose (1000 mg/l, DMEM-LG) supplemented with 10% fetal calf serum, 100 U/ml penicillin, 100 μg/ml streptomycin and 2 mM L-glutamine, and cultured under standard conditions at 37° C. and 5% CO2 in a humidified atmosphere. Media replacement was every three days. Cells were detached with 0.125% trypsin/Versene (pH 7.0) upon reaching 75-80% confluence, and re-plated at a density of 3,000 cells/cm^2 under the same culture conditions. All experiments were carried out with cells at passage 5.
Human MSCs were cultured in 6-well plates in basal media for 24 h at a density of 10,000 cells/cm^2. TGF-β1 treatments were then prepared at either 1 ng/ml or 5 ng/ml alone or in the presence of either 10 μg/ml or 40 μg/ml of full length heparin, or 1 ng/ml of TGF-β1 with 10 μg/ml size-fractionated or selectively desulfated heparin, HS^PM, HS16+ or HS16−, and incubated at room temperature for 10 min before being added to the cells. Latent TGF-β1 (LTGF-β1) treatments were similarly prepared at 3.3 ng/ml alone or with 10 μg/ml of the various GAGs described above. For inhibitor studies, the cells were pre-treated for 30 min with 10 μM SB431542 (Sigma-Aldrich) or DMSO before treatment with TGF-β1. […] Samples were then immunoblotted with antibodies against SMAD2/3 (#3102, Cell Signaling), phosphorylated SMAD2 (pSMAD2, #3108, Cell Signaling), phosphorylated SMAD3 (pSMAD3, #9520, Cell Signaling) and actin (MAB1501R, Millipore). Densitometry was carried out using Quantity One software (version 4.6.6, Bio-Rad).

[4] = test system: chondrogenic differentiation of hMSCs; assay: qPCR of day 3 chondrogenic micromass pellets (Example 1); type: cell-based, human; settings: 3-day old pellets; SB431542 10 μM vs DMSO
Procedure: Chondrogenic differentiation was carried out using a modified micromass culture system as described by Zhang et al. (32). Briefly, passage 4 hMSCs were harvested and resuspended in chemically defined chondrogenic media (PT-3003, Lonza) at 2×10^7 cells/ml. Droplets of 12.5 μl were then seeded into the middle of each well in a 24-well plate and left to adhere at 37° C. for 2 h, after which, 500 μl of chondrogenic media supplemented with either 10 ng/ml of TGF-β1 (100-21C, PeproTech) alone (Media) or TGF-β1 with 10 μg/ml of heparin (Sigma-Aldrich) (Media+Hep) was added to each well. The cell droplets coalesced into spherical masses after 24 h and the micromasses harvested on day 3. Human MSCs were cultured in 6-well plates in basal media for 24 h at a density of 10,000 cells/cm^2. TGF-β1 treatments were then prepared at either 1 ng/ml or 5 ng/ml alone or in the presence of either 10 μg/ml or 40 μg/ml of full length heparin, or 1 ng/ml of TGF-β1 with 10 μg/ml size-fractionated or selectively desulfated heparin, HS^PM, HS16+ or HS16−, and incubated at room temperature for 10 min before being added to the cells. Latent TGF-β1 (LTGF-β1) treatments were similarly prepared at 3.3 ng/ml alone or with 10 μg/ml of the various GAGs described above. For inhibitor studies, the cells were pre-treated for 30 min with 10 μM SB431542 (Sigma-Aldrich) or DMSO before treatment with TGF-β1. The cells were then subjected to the various TGF-β1 treatments for 1, 6 or 24 h and lysed in 2× Laemmli buffer, before being resolved on a 4-12% SDS-PAGE gel. Samples were then immunoblotted with antibodies against SMAD2/3 (#3102, Cell Signaling), phosphorylated SMAD2 (pSMAD2, #3108, Cell Signaling), phosphorylated SMAD3 (pSMAD3, #9520, Cell Signaling) and actin (MAB1501R, Millipore). Densitometry was carried out using Quantity One software (version 4.6.6, Bio-Rad). Total RNA was isolated from chondrogenic micromass pellets using TRIZOL reagent (Invitrogen, Life Technologies) according to the manufacturer's protocol. Reverse transcription was carried out on 1 μg RNA using the SuperScript® VILO™ cDNA Synthesis Kit (Invitrogen, Life Technologies) following the manufacturer's instructions, with the incubation at 42° C. being carried out for 2 h instead of 1 h. Each qPCR contained 40 ng cDNA, 1 μl TaqMan® primer-probe mix per gene, and 10 μl Taqman® Fast Universal PCR Master Mix (Applied Biosystems, Life Technologies) in a final volume of 20 μl. Thermal cycling conditions were 95° C. for 20 s, followed by 45 cycles of 95° C. for 3 s and 60° C. for 30 s. Each qPCR was run in duplicate and gene expression was normalized to HPRT1 expression to obtain the ΔCt value. […] Relative expression levels for each primer set were expressed as fold changes by the 2^−ΔΔCt method (36). […]

T1 sequence (P01137 279-390 limits assumed): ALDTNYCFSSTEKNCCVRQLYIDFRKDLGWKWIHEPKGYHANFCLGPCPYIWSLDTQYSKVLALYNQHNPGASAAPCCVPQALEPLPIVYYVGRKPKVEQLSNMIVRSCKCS

Compound | ability to competitively inhibit TGF-β1 binding to immobilized heparin [1] | reduction of TGF-β1 binding compared to fully sulfated, full-length heparin [2] | pSMAD2 and pSMAD3 levels [3] | loss of TGF-β1-binding ability ([1]; 200 nM TGF-β1 with 5 or 10 μg GAG, relative to heparin) | COMP gene expression [4] | SOX9 gene expression [4] | TGF-β1 binding to immobilized GAG ([2]; TGF-β1 100, 200 or 400 ng/ml)
2-O-desulfated heparin | minimal effect | about 60% | increase to levels beyond those seen in heparin-treated cells | – | – | – | –
6-O-desulfated heparin | – | approximately 80% | stabilization of pSMAD levels | approximately 40% | – | – | –
NC(=O)c1ccc(-c2nc(-c3ccc4c(c3)OCO4)c(-c3ccccn3)[nH]2)cc1 [SB431542] | – | – | – | – | reduction | reduction | –
N-desulfated heparin | abrogated | – | did not lead to an increase in pSMAD levels | – | – | – | essentially abolished
